Measured values reported in US6962900B2, “Pharmaceutical being used for treating HIV infection, the composition and uses thereof” (priority 2001, dated 2005).
“Also recorded” adds a separate entry of the source. Peptide text beside a SMILES is read from it.

How the values were obtained:
gp41 N-peptide = target: T1, gp41 N-peptide (Human immunodeficiency virus type 1 group M subtype B, UniProt P04578); experiment: stability by melting curve (circular dichroism) of peptide complexed with gp41 N-peptide; type: physicochemical, HIV-1
T1 construct: The peptide solution containing Fusonex and gp41 N-peptide (35-70) was measured
Description: This experiment determined the stability of a polypeptide by measuring its melting curve at different temperatures. The experiment was carried out on Aviv 62A DS circular dichroism spectrum apparatus. The temperature range for heating peptide solution was from 20° C. to 95° C.

HIV-1 gp160HXB = target: T2, HIV-1 gp160HXB (Human immunodeficiency virus type 1 group M subtype B, UniProt P04578); experiment: cell-cell fusion assay (luciferase reporter, synplasm formation induced by HIV-1 gp160HXB); type: cell-based
T2 construct: expressed in transfected cells; host or cells: 293T cells
Excerpt: The specific experiment methods are as follows: The T7 promoter was inserted into the pSP64 upstream sequence of the cloning site to assemble a luciferase reporter gene plasmid—Pst7luc. The internal ribozyme entry site (IRES) of encephalomyocarditis virus (CMCV) was linked with the 5′-terminal of luciferase gene as well as the downstream area of T7 promoter. CD4 gene, T7 polymerase gene, and HIV-1 gp160HXB gene were subcloned into the mammalian expression plasmid—PMT3.
In a 10 cm culture dish, the 293T cells were transferred by Calcium Phosphate Method. Equal quantities of gp160HXB gene and T7 polymerase gene were used to transfect the effector cells, and pSP64 and CD4 gene were used to transfect the target cells. The PMT3 plasmid in the absence of gp160HXB or CD4 gene was set as a negative control.
The cells with non-serous DMEM were rinsed, after the DNA precipitate was added. The cells were cultured for 30-40 minutes at 37° C. in 9 ml/dish non-serous DMEM. […]
The solution as a stock solution was put to serial dilution in culture medium before use. […] Two minutes after adding luciferase substrate to the black 96-well culture plate, measure the chemical fluorescence intensity with Spex fluorolog-3 fluorimeter, the emission wavelength being 552 nm and slit breadth being 7 mm. The average and standard deviation were calculated from the three data of each concentration point.

HIV = settings: first and second stages of clinical trials; cited from earlier work

T1 sequence (P04578 546-581): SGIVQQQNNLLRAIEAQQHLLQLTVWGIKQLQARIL
T2 sequence (P04578 512-856): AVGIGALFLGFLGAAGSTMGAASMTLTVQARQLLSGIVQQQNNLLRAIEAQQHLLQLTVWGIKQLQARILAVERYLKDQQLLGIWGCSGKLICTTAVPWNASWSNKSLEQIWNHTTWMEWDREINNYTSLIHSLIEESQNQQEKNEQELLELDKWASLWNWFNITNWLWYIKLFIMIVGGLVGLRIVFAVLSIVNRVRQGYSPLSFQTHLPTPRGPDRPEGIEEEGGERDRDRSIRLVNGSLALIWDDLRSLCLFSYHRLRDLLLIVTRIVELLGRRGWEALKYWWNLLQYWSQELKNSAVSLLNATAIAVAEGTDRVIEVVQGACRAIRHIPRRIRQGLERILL

## CC[C@H](C)[C@H](NC(=O)[C@H](CCC(=O)O)NC(=O)[C@H](CCCNC(=N)N)NC(=O)[C@H](CCC(=O)O)NC(=O)[C@H](Cc1c[nH]c2ccccc12)NC(=O)[C@@H](NC(=O)[C@H](CCC(=O)O)NC(=O)[C@H](Cc1c[nH]c2ccccc12)NC(=O)[C@H](CO)NC(C)=O)[C@@H](C)O)C(=O)N[C@@H](CCC(=O)O)C(=O)N[C@@H](CC(N)=O)C(=O)N[C@@H](Cc1ccc(O)cc1)C(=O)N[C@H](C(=O)N[C@@H](CCCCN)C(=O)N[C@@H](CCC(N)=O)C(=O)N[C@H](C(=O)N[C@@H](Cc1ccc(O)cc1)C(=O)N[C@@H](CCCCN)C(=O)N[C@H](C(=O)N[C@@H](CC(C)C)C(=O)N[C@@H](CCC(=O)O)C(=O)N[C@@H](CCC(=O)O)C(=O)N[C@@H](CO)C(=O)N[C@@H](CCC(N)=O)C(=O)N[C@@H](CCC(=O)O)C(=O)N[C@@H](CCC(N)=O)C(=O)N[C@@H](CCC(N)=O)C(=O)N[C@@H](CC(=O)O)C(=O)N[C@@H](CCCNC(=N)N)C(=O)N[C@@H](CC(N)=O)C(=O)N[C@@H](CCC(=O)O)C(=O)N[C@@H](CCCCN)C(=O)N[C@@H](CC(=O)O)C(=O)N[C@@H](CC(C)C)C(=O)N[C@@H](CC(C)C)C(=O)N[C@@H](CCC(=O)O)C(N)=O)[C@@H](C)CC)[C@@H](C)CC)[C@@H](C)O [Fusonex] (Ac-SWETWEREIENYTKQIYKILEESQEQQDRNEKDLLE-NH2)
gp41 N-peptide; FIG. 4
  stability compared with T-20 (melting curve): higher than that of T-20; also recorded: more stable than T-20
gp41 N-peptide; heating 20° C. to 95° C.
  50% melting temperature: 70 °C
HIV-1 gp160HXB
  IC50: 1.2 ± 0.2 nM
HIV-1 gp160HXB; at the same concentration, FIG. 5
  inhibiting activity compared with T-20 (cell fusion induced by HIV-1 gp160HXB): better inhibiting activity than T-20

## enfuvirtide
HIV
  toxicity against the spinal cord: no toxicity against the spinal cord
